Laboratory results published in patent US20120244094A1, “TETRAPEPTIDES FOR BRIGHTENING THE SKIN” (EVONIK GOLDSCHMIDT GMBH, priority 2009, published 2012).

Legend:
[1] = test system: melanin concentration in the skin of the forearm; experiment: In vivo lightening (2-month study), melanin concentration measured with a Mexameter probe; set-up: species or system human; conditions: 0.005% PKEK formulation, 20 subjects, compared to vehicle, FIG. 1
Text: 20 subjects wore a test formulation without peptide or with 0.005% PKEK over a period of 8 weeks on one forearm in each case. Prior to the start of the study, and also after 8 weeks, a Mexameter probe (Courage & Khazaka, Cologne) was used to measure the melanin concentration both on the inside and also on the outside of the forearm. The measurement of the melanin concentration in the skin is based on the principle of absorption/reflection. The Mexameter probe emits light of a specific wavelength which is in agreement with the absorption maxima of the melanin in the skin. The light reflected by the skin is measured and placed relative to the emitted amount of light. The resulting measurement values are given as index numbers. [table]

[2] = test system: age spots on the face; experiment: Reduction of age spots on the face, half-side test, chromameter skin shade ITA°; type: in vivo, human; conditions: applied twice daily for six weeks, FIG. 4; for ΔΔITA after 6-week application of the test formulations (reduction of age spots): 40 women, PKEK 0.004%, sodium ascorbyl phosphate 1.5%
Experimental: In order to quantify such age spots, color measurements of the skin are carried out. For this purpose, chromameters are used. The chromameter measures the color values L*, a* and b*. These describe a three-dimensional color space, with the help of which every perceivable color can be described, cf. FIG. 2. The end points are black (L=0) and white (L=100). In order to be able to classify the skin shade, the parameters L* and b* are required. The skin shade ITA° is given in degrees and calculated using the following formula: ITA°=[arctan((L*−50)/b*)]*180/3.14159 By means of the following study, the aim is to investigate whether the tetrapeptide PKEK is able to visibly reduce age spots. The study was carried out as a half-side test. 40 women aged between 30 and 70 years were selected who had visible age spots on the face. They were each given 2 test formulations, one for the right half of the face and the other for the left half of the face. The test formulations had to be applied twice daily over a period of six weeks. [table] Prior to the start of the study and also after 6 weeks, the color of the skin directly on the age spot was measured as well as in the adjoining area. This was performed using a CR 400 chromameter from Minolta. The skin shade ITA° was calculated both for the age spot (ITA°A) and also the adjoining area (ITA°U) and the difference was calculated: ΔITA°=ITA°U−ITA°A The greater ΔITA°, the more visible the age spot.

[3] = test system: evenness of the skin appearance of dark-skinned women (Fitzpatrick type VI-V); experiment: Improvement in the skin appearance in dark-skinned people, visual assessment of evenness by an expert; type: in vivo, human; conditions: 0.004% PKEK face cream twice daily, FIG. 5
Experimental: For the following study, dark-skinned women (Fitzpatrick type VI-V) were used. The Fitzpatrick scale serves to organize the different skin types:
In each case, 25 female subjects were given a face cream which comprised either the tetrapeptide PKEK or no active ingredient (vehicle). They had to apply this formulation twice daily over the entire face for a period of 12 weeks. Prior to the start of the study and also after 2, 4, 8 and 12 weeks, the evenness of the skin appearance was assessed visually by an expert.
A five-part scale was used for assessing the skin appearance:
5=no contrast, very even skin appearance 4=slight contrast, slightly irregular skin appearance 3=moderate contrast, irregular skin appearance 2=high contrast, highly irregular skin appearance 1=very high contrast, very highly irregular skin appearance

Molecule | difference in the melanin values after 8 weeks compared to the starting value (decrease in skin brownness) ([1]; inside of the forearm) | difference in the melanin values after 8 weeks compared to the starting value (decrease in skin brownness) ([1]; outside of the forearm) | ΔΔITA after 6-week application of the test formulations (reduction of age spots) [2] | reduction of age spots, PKEK compared with sodium ascorbyl phosphate ([2]; comparison of the single actives) | improvement in the evenness of the skin appearance (five-part visual scale) ([3]; after 12 weeks, vehicle shows no further improvement) | improvement in the evenness of the skin appearance compared with the vehicle ([3]; within the first 8 weeks, over the course of the time) | improvement in the evenness of the skin appearance (five-part visual scale) ([3]; within the first 8 weeks)
Pro Lys Glu Lys (PKEK) | significantly greater decrease in skin brownness | significantly greater decrease in skin brownness | visible reduction of the age spots | greater reduction than sodium ascorbyl phosphate | significantly improves the skin appearance yet further | increasingly greater over the course of the time than with the vehicle | visibly improved
O=C1O[C@H]([C@@H](O)CO)C([O-])=C1OP(=O)([O-])[O-].[Na+].[Na+].[Na+] [sodium ascorbyl phosphate, reference compound] | – | – | visible reduction of the age spots | – | – | – | –
